Reference: ChEMBL document CHEMBL1781986, “Structure-activity relationships of pyrrole based S-nitrosoglutathione reductase inhibitors: pyrrole regioisomers and propionic acid replacement” (Bioorg Med Chem Lett, 2011)
Calls of active or inactive are those of the source. No cut-off for these calls is given here.

What was measured:
[1] = species: Homo sapiens; assay: Inhibition of human recombinant BZD receptor at 10 uM by radioligand binding assay
[2] = target: D(1A) dopamine receptor (Homo sapiens) (UniProt P21728); assay: Inhibition of human recombinant D1 receptor at 10 uM by radioligand binding assay
[3] = target: T1, Galanin receptor type 2 (Homo sapiens) (UniProt O43603); assay: Inhibition of human recombinant GAL2 receptor at 10 uM by radioligand binding assay
T1 sequence (whole entry): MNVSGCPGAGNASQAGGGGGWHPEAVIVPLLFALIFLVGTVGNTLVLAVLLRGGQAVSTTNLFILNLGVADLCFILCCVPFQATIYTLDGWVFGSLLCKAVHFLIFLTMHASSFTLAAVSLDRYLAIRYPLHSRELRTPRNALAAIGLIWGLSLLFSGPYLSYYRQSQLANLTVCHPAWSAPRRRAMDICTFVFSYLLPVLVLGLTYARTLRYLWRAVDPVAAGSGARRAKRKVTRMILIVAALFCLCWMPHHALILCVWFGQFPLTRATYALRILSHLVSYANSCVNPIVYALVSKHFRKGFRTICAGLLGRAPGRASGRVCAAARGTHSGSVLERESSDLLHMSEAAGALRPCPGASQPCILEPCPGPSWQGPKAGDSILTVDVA

[4] = target: T2, C-C chemokine receptor type 1 (Homo sapiens) (UniProt P32246); assay: Inhibition of human recombinant CCR1 receptor at 10 uM by radioligand binding assay
T2 sequence (whole entry): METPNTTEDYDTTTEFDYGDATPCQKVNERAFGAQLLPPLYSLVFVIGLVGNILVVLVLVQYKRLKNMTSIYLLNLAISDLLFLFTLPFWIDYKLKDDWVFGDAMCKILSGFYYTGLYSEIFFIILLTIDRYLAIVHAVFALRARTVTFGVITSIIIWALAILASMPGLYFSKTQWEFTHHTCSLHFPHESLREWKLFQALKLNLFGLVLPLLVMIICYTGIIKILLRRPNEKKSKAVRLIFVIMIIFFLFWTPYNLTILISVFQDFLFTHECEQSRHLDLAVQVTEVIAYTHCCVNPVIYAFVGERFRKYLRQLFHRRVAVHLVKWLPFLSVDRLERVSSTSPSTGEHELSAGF

[5] = target: 5-hydroxytryptamine receptor 6 (Homo sapiens) (UniProt P50406); assay: Inhibition of human recombinant 5HT6 receptor at 10 uM by radioligand binding assay
[6] = target: Neuropeptide Y receptor type 2 (Homo sapiens) (UniProt P49146); assay: Inhibition of human recombinant Y2 receptor at 10 uM by radioligand binding assay
[7] = tested on: A549; assay: Cytotoxicity against human A549 cells; format: functional, cell-based

D(1A) dopamine receptor (Homo sapiens), sequence (P21728 whole entry): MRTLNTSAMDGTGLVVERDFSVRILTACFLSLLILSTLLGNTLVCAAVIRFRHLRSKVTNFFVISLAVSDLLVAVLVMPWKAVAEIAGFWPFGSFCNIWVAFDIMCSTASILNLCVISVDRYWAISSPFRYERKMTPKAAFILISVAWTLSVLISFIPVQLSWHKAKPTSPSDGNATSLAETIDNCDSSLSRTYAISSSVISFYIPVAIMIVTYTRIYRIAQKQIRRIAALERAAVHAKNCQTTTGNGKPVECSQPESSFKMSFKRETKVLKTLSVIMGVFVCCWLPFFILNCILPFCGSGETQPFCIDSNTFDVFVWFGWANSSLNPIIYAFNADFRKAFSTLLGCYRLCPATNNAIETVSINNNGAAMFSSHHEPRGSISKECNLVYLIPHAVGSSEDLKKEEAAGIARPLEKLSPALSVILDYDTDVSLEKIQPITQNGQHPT
5-hydroxytryptamine receptor 6 (Homo sapiens), sequence (P50406 whole entry): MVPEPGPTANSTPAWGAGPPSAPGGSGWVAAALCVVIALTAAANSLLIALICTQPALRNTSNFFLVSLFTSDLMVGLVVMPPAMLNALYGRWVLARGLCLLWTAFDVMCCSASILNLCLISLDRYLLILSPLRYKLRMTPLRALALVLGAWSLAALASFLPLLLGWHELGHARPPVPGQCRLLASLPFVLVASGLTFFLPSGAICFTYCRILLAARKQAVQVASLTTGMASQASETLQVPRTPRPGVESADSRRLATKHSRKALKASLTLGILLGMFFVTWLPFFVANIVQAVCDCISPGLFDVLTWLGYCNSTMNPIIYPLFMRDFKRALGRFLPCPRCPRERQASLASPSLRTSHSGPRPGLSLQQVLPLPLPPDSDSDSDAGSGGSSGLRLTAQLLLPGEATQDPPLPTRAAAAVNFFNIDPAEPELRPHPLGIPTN
Neuropeptide Y receptor type 2 (Homo sapiens), sequence (P49146 whole entry, looked up): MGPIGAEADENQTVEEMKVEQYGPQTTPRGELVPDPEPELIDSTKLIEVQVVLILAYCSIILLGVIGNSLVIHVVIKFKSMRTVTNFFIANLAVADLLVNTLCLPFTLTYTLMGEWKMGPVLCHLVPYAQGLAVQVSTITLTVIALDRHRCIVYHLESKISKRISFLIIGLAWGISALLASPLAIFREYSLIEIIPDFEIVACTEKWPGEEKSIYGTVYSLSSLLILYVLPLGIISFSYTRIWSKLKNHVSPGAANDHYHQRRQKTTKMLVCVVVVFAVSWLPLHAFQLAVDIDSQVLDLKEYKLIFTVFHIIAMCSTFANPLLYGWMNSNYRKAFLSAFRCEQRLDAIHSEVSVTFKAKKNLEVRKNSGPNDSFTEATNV

| SMILES | inhibition [1] | inhibition [2] | inhibition [3] | inhibition [4] | inhibition [5] | inhibition [6] | IC50 [7] [µM] |
| --- | --- | --- | --- | --- | --- | --- | --- |
| Cc1cc(C(N)=O)ccc1-n1c(CCC(=O)O)ccc1-c1ccc(-n2ccnc2)cc1 [N6022] | inactive | inactive | inactive | inactive | inactive | inactive | – |
| Cc1cc(C(N)=O)ccc1-c1c(-c2ccc(-n3ccnc3)cc2)ccn1CCC(=O)O | inactive | inactive | inactive | inactive | inactive | inactive | – |
| Cc1cc(C(N)=O)ccc1-c1c(CCC(=O)O)ccn1-c1ccc(-n2ccnc2)cc1 | inactive | inactive | inactive | inactive | inactive | inactive | > 250 |

Further lines, with some results ahead:

| inhibition [1] | inhibition [2] | inhibition [3] | inhibition [4] | inhibition [5] | inhibition [6] | SMILES | IC50 [7] [µM] |
| --- | --- | --- | --- | --- | --- | --- | --- |
| Active | Active | Active | Active | Active | Active | COc1ccc(-c2ccn(-c3ccc(O)c([N+](=O)[O-])c3)c2-c2ccc(C(N)=O)cc2C)cc1 | – |
| Active | Active | Active | Active | Active | Active | COc1ccc(-c2ccn(-c3ccc(C(=O)O)c(O)c3)c2-c2ccc(C(N)=O)cc2C)cc1 | – |
